Test results published in US8664276B2, “Stilbene analogs and methods of treating cancer” (University of Kentucky Research Foundation, priority 2011, dated 2014).

Tests used:
[1] = system: β-catenin target genes; experiment: RT-PCR of β-catenin target genes in LS174 cells; type: cell-based; settings: RT-PCR
Method: RT-PCR. LS174 cells were treated with DMSO or Wnt inhibitors. After 36 h, RNA was isolated using the RNeasy kit (Qiagen). RT-PCR was performed as described in Zhang et al., Mol Cell Biol 2006, 26, 2055-2064. The following primers were used: β-actin: 5′-CAACCGCGAGAAGATGAC-3′ (SEQ ID NO:01), 5′-AGGAAGGCTGGAAGAGTG-3′ (SEQ ID NO:02); surivivin: 5′-[…]-3′ (SEQ ID NO:03), 5′-[…]-3′ (SEQ ID NO:04); c-Myc: 5′-TGGGCTGTGAGGAGGTTTG-3′ (SEQ ID NO:05), 5′-TATGTGGAGCGGCTTCTCG-3′ (SEQ ID NO:06); Axin2: 5′-[…]-3′ (SEQ ID NO:07), 5′-[…]-3′ (SEQ ID NO:08); TCF4: 5′-[…]-3′ (SEQ ID NO:09), 5′-[…]-3′ (SEQ ID NO:10); pygopus2: 5′-GGCCGGTCTGCAAATGAAG-3′ (SEQ ID NO:11), 5′-TCCACCTCCAGTGCTGTAG-3′ (SEQ ID NO:12); Lgr5: 5′-[…]-3′ (SEQ ID NO:13), 5′-[…]-3′ (SEQ ID NO:14); CD44: 5′-[…]-3′ (SEQ ID NO:15), 5′-[…]-3′ (SEQ ID NO:16); Ki67: 5′-[…]-3′ (SEQ ID NO:17), 5′-[…]-3′ (SEQ ID NO:18).
Cyclin B1 levels were decreased, whereas p21^WAF1/CIP1 levels increased, consistent with the fact that p21^WAF1/CIP1 expression is repressed by c-Myc. β-catenin levels were not affected by resveratrol. Next, the mRNA levels of β-catenin target genes were analyzed using RT-PCR. Expression of survivin, Lgr5, CD44, and c-Myc were decreased in resveratrol-treated cells.

[2] = system: β-catenin; experiment: β-catenin localization by immunofluorescence in LS174 cells; type: cell-based; settings: 10 μM, 24 h, versus DMSO
Method: Immunofluorescence. Cells grown on cover glass were fixed by 4% paraformaldehyde for 20 min at room temperature. The cells were permeabilized with PBS containing 0.3% (w/v) Triton X-100 and blocked by 5% normal goat serum in PBS for 30 min. Anti-β-catenin antibody (1:300, Sigma, St. Louis, Mo.) was diluted in blocking solution and incubated with cells overnight. The cells were washed 3 times with PBS and further incubated with Alexa-488-labeled anti-rabbit IgG (1:500) diluted in PBS for 40 min. The cover glasses were washed, mounted on glass slides, viewed and photographed with an Olympus FW1000 confocal microscope. Cells grown on cover glass were treated with fluorescent compounds for 2 h, 6 h, 12 h and 24 h respectively. Treated cells were fixed by 4% paraformaldehyde for 20 min at room temperature. Then cells were washed 3 times with PBS and mounted on glass slides, viewed under the fluorescence of 405 nm-wavelength and photographed with an Olympus FW1000 confocal microscope.
Nevertheless, compound 4s lends itself well to a mechanistic study of the site of action of these compounds. LS174 cells were treated with 10 μM of compound 4s for 2 h, 6 h, 12 h, and 24 h. The cells were fixed and analyzed by confocal fluorescence microscopy. […] The cells were fixed and β-catenin localization analyzed by immunofluorescence. […]

[3] = target: MAT2A (Homo sapiens, UniProt P31153); experiment: In-vitro SAM synthesis by MAT2A (LC-MS/MS); type: biochemical; parameters: GST (N); made in house
Method: SAM and SAH analysis by LC-MS/MS. The LC-MS/MS system consisted of two Varian ProStar 210 LC Pumps coupled with a Varian 1200L triple quadrupole mass spectrometer. The separation was performed on a Hypercarb column (50 mm×2.1 mm, […], Thermo Scientific #35003-052130). Gradient elution started with 98% solution A (0.1% formic acid in water), followed by an increase to 38% solution B (0.1% formic acid in acetonitrile) in 8 min. The column was than flushed with 90% B for 5 min and regenerated with 98% A for another 8 min. The flow rate was 0.25 mL/min. Between the 3rd and 11th min, the eluent was switched to the ion source of the mass spectrometer. The precursor product transitions for SAM (m/z 399→250), SAH (m/z 385→250) and [d-4]-SAH (m/z 389→136) were monitored. The optimized ion source parameters were: Capillary Voltage: 32 V for both SAM and SAH, Collision energy: 9 V and 7V for SAM and SAH, respectively, Needle voltage: 5000 V and the Shield voltage: 600V. Nitrogen was used as the drying gas at a temperature of 300° C. and the interface heater was set to 50° C. The drying gas and nebulizing gas were set to 20 and 50 psi, respectively.
SAM synthesis. […] purified MAT2A was incubated with 1 mM L-methionine and 1 mM ATP in […] reaction solution (50 mM Tris.Cl, 50 mM KCl, 10 mM MgCl2) for 5 min at 25° C. […] SAM was analyzed by LC-MS/MS. […]

Chain of MAT2A (P31153 whole entry): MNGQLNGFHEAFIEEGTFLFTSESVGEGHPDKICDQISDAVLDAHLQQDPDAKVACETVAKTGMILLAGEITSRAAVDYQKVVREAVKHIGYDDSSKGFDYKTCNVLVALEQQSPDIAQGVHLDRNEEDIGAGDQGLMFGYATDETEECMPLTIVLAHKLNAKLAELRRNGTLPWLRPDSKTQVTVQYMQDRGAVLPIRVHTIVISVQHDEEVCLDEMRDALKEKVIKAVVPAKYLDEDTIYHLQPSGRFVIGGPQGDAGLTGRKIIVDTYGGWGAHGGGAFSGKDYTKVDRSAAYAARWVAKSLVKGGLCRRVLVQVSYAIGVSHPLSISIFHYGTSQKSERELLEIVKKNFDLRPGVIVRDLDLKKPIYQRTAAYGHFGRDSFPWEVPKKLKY

CN(C)c1ccc(/C=C/c2c(F)cccc2F)cc1 [4r, (E)-4-(2,6-Difluorostyryl)-N,N-dimethylaniline]
transcription of TCF4 genes [1]: inhibited | transcription of Wnt target genes [1]: strongly inhibited | transcription of pygopus2 genes [1]: no significant effects | nuclear β-catenin levels [2]: decreased | MAT2A activity in SAM synthesis [3]: inhibit MAT2A activity
